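These data come from cells grown in 96-well plates and exposed to compound for 48 hours at five concentrations. GI50: concentration for 50% inhibition of growth.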 The source made the active and inactive calls. Cut-off read from the data, not from the text of the source: active = GI50 up to about 1.1 µM and inactive = higher.
Experiments:
Assay in all cases: DTP human tumour cell line panel, 48 h
[1] = tested on: NCI-H23
[2] = tested on: ACHN
[3] = tested on: T47D
[4] = tested on: NCI-H522
[5] = tested on: NCI-H460
[6] = tested on: MOLT-4
[7] = tested on: RPMI-8226
[8] = tested on: SF-539
[9] = tested on: OVCAR-3
[10] = tested on: DU-145
[11] = tested on: SNB-19
[12] = tested on: COLO 205
[13] = tested on: KM12
[14] = tested on: M14
[15] = tested on: NCI/ADR-RES
[16] = tested on: SK-MEL-28
[17] = tested on: Malme-3M
[18] = tested on: HOP-92
[19] = tested on: IGROV-1
[20] = tested on: OVCAR-8

Structure (SMILES) | GI50 [1] | GI50 [2] | GI50 [3] | GI50 [4] | GI50 [5] | GI50 [6] | GI50 [7] | GI50 [8] | GI50 [9] | GI50 [10] | GI50 [11] | GI50 [12] | GI50 [13] | GI50 [14] | GI50 [15] | GI50 [16] | GI50 [17] | GI50 [18] | GI50 [19] | GI50 [20]
C#CC1=CC(=O)C(OC)=CC1=O | 20.9 µM (inactive) | 3.44 µM (inactive) | 23 µM (inactive) | 1.77 µM (inactive) | 34.5 µM (inactive) | 3.25 µM (inactive) | 17.8 µM (inactive) | 42.7 µM (inactive) | 33.5 µM (inactive) | 17.8 µM (inactive) | > 100 µM (inactive) | 27 µM (inactive) | 58.7 µM (inactive) | 16.5 µM (inactive) | 32.9 µM (inactive) | 37.2 µM (inactive) | 25.9 µM (inactive) | 15.6 µM (inactive) | – | –
Cc1ccc2c(c1)CC1(Cc3cc(C)ccc3C1=O)C2=O | > 100 µM (inactive) | > 100 µM (inactive) | > 100 µM (inactive) | > 100 µM (inactive) | > 100 µM (inactive) | > 100 µM (inactive) | > 100 µM (inactive) | > 100 µM (inactive) | > 100 µM (inactive) | > 100 µM (inactive) | > 100 µM (inactive) | – | – | > 100 µM (inactive) | > 100 µM (inactive) | > 100 µM (inactive) | > 100 µM (inactive) | > 100 µM (inactive) | > 100 µM (inactive) | > 100 µM (inactive)
c1ccc2c(c1)CC1COc3ccccc3C1O2 (stereo not drawn) | 67.1 µM (inactive) | 75.9 µM (inactive) | 51.4 µM (inactive) | 57.4 µM (inactive) | – | 30.3 µM (inactive) | 27.5 µM (inactive) | > 100 µM (inactive) | 67.8 µM (inactive) | > 100 µM (inactive) | – | > 100 µM (inactive) | 44.2 µM (inactive) | > 100 µM (inactive) | 47.8 µM (inactive) | – | > 100 µM (inactive) | 47 µM (inactive) | 86.1 µM (inactive) | > 100 µM (inactive)
COc1cc(COC(=O)N2CC=CC2C(=O)O)c([N+](=O)[O-])cc1OC (stereo not drawn) | > 100 µM (inactive) | > 100 µM (inactive) | > 100 µM (inactive) | – | > 100 µM (inactive) | > 100 µM (inactive) | > 100 µM (inactive) | > 100 µM (inactive) | > 100 µM (inactive) | > 100 µM (inactive) | > 100 µM (inactive) | > 100 µM (inactive) | > 100 µM (inactive) | > 100 µM (inactive) | > 100 µM (inactive) | > 100 µM (inactive) | > 100 µM (inactive) | > 100 µM (inactive) | > 100 µM (inactive) | > 100 µM (inactive)
O=c1oc2cc(/N=C/c3ccc4c(c3)OCO4)ccc2c2ccccc12 | > 100 µM (inactive) | 58.1 µM (inactive) | 43.7 µM (inactive) | 56.8 µM (inactive) | 39.8 µM (inactive) | 33.3 µM (inactive) | – | 47 µM (inactive) | > 100 µM (inactive) | > 100 µM (inactive) | 50.2 µM (inactive) | 56.6 µM (inactive) | > 100 µM (inactive) | > 100 µM (inactive) | 77.1 µM (inactive) | > 100 µM (inactive) | > 100 µM (inactive) | > 100 µM (inactive) | 78.3 µM (inactive) | 42.5 µM (inactive)
N=C(N)c1ccc(/N=N\c2c(O)ccc3cc4c(/N=N\c5ccc(C(=N)N)cc5)c(O)ccc4cc23)cc1 | – | > 100 µM (inactive) | 96.8 µM (inactive) | > 100 µM (inactive) | 40.7 µM (inactive) | 37.8 µM (inactive) | 28 µM (inactive) | 94.8 µM (inactive) | > 100 µM (inactive) | > 100 µM (inactive) | > 100 µM (inactive) | > 100 µM (inactive) | > 100 µM (inactive) | > 100 µM (inactive) | > 100 µM (inactive) | > 100 µM (inactive) | > 100 µM (inactive) | > 100 µM (inactive) | 51.5 µM (inactive) | 80.4 µM (inactive)
Cc1cc2c(c3oc(C(O)(CO)C4CO4)cc(=O)c13)C(=O)c1c(O)cccc1C2=O (stereo not drawn) | – | 0.000278 µM (active) | 0.00163 µM (active) | 0.0012 µM (active) | 0.000372 µM (active) | 0.000145 µM (active) | 0.000313 µM (active) | 0.000662 µM (active) | 0.0029 µM (active) | 0.000552 µM (active) | 0.00119 µM (active) | 0.00163 µM (active) | 0.00104 µM (active) | 0.00168 µM (active) | 0.00129 µM (active) | 0.00219 µM (active) | 0.00169 µM (active) | 0.00013 µM (active) | 0.000266 µM (active) | 0.000569 µM (active)
CC(=O)NC(Cc1c[nH]cn1)C(=O)N1CCCC1C(N)=O (stereo not drawn) | > 100 µM (inactive) | > 100 µM (inactive) | > 100 µM (inactive) | > 100 µM (inactive) | > 100 µM (inactive) | > 100 µM (inactive) | > 100 µM (inactive) | – | > 100 µM (inactive) | > 100 µM (inactive) | > 100 µM (inactive) | > 100 µM (inactive) | > 100 µM (inactive) | > 100 µM (inactive) | > 100 µM (inactive) | > 100 µM (inactive) | > 100 µM (inactive) | > 100 µM (inactive) | > 100 µM (inactive) | > 100 µM (inactive)
